Test results taken from patent US5451518A, “Purified human ceramide-activated protein kinase” (Sloan-Kettering Institute for Cancer Research, priority 1992, dated 1995).
“Also recorded” adds a separate entry of the source.

How the values were obtained:
protein kinase C = test: Protein kinase C activity by phosphorylation of lysine-rich histone in EL-4 cells; format: cell-based, murine; details: membrane and cytosolic fractions
EL-4 cells [1] = test: Ceramide levels in intact EL-4 cells; format: cell-based, murine
Method: (§1) Time course (FIG. 12A) and dose response (FIG. 12B). Cells were grown to growth arrest (1-1.5×10^6 cells ml^-1) in DME/Ham's F12 medium (1:1, v/v) containing 10% horse serum and for 48 hours [^3 H]choline (1 μCi ml^-1). On the day of an experiment, cells were resuspended back into the same medium at 10×10^6 cells ml^-1 and stimulated with 40 ng ml^-1 IL-1β for the indicated times (FIG. 12A) or for 30 minutes with increasing concentrations of IL-1β (FIG. 12B). Human IL-1β may be obtained using methods well knownto those skilled in the art. Reactions were terminated with CHCl3 :CH3 OH:HCl (100:100:1) containing 10 mM EDTA (82). Lipids in the organic phase extract were dried under N2 and subjected to mild alkaline hydrolysis (0.1M methanolic KOH for 1 hour at 37° C.) to remove glycerophospholipids. Spingomyelin was resolved by thin-layer chromatography (TLC) using CHCl3 :CH3 OH:CH3 COOH:H2 O (60:30:8:5) as solvent, identified by iodine vapor staining, and quantified by liquid scintillation spectrometry. As previously reported, the use of [^3 H]choline as a measure of sphingomyelin content was validated by simultaneous phospholipid phosphorus measurements (62). Each value represents the mean ± SEM of triplicate determinations from four experiments in (FIG. 12A), and one representative of four similar studies performed in triplicate in (FIG. 12B).
Cells were stimulated as in FIGS. 12A and 12B with IL-1β (40 ng ml^-1) and ceramide contained within the organic phase extract quantified enzymatically using the E. coli diacylglycerol kinase reaction (57). Lipids were resolved by TLC using CHCl3 :CH3 OH:CH3 COOH (65/15/5) as solvent, autoradiographed and quantified by liquid scintillation spectrometry. Each value represents the mean ± SEM of triplicate determinations from 10 experiments.

[2] = test system: sphingomyelin (EL-4 nuclei-free supernate); test: Sphingomyelin levels in EL-4 cell-free system; format: biochemical, murine; details: IL-1β, n=10, p<0.005 vs. control
Method: (§2) Thereafter, supernates (300 μg incubation^-1 in 25 μl ) were added to a reaction mixture (total volume 250 μl ) as described in FIG. 14. For studies measuring lipid levels, incubations were stopped by extraction of lipids into an organic phase and resolved as described in FIGS. 12A, 12B and 13. For studies measuring kinase activity, incubations contained EGFR peptide and [^32 P]ATP, and phosphorylated peptide was quantified as described in FIG. 14. Background activity was subtracted from each point. Values (mean) represent data from two experiments for sphingomyelin performed in triplicate, three experiments for ceramide performed in triplicate, and five experiments for ceramide-activated protein kinase activity performed in duplicate.
(§3) Early kinetics of activation of a potential signaling system provide some support that the pathway might be involved in the signaling process. However, signal transduction pathways are highly regulated and often interrelated (70). […] To provide additional support for tight coupling of the sphingomyelin pathway to activation of the IL-1β receptor, studies were performed with subcellular fractions derived from EL-4 cells. […] These effects were quantitatively similar to those determined in the intact cells.

EL4 cells = details: 24 h
EL-4 cells [3] = test: Phosphatidylcholine content in EL-4 cells; format: cell-based, murine; details: IL-1β
EL-4 cells [4] = test: Sphingomyelin levels in intact EL-4 cells; format: cell-based, murine
Method: as §1
The murine thymoma EL-4 cell line is a well-defined IL-1 responsive cell line that expresses functional IL-1 receptors (61, 62). Upon stimulation with IL-1, these cells up-regulate the IL-2 receptor and secrete IL-2 (62). Initial studies were designed to investigate the effects of IL-1β on cellular sphingomyelin content. Cells, grown in Dulbecco's Modified Eagle's (DME)/Ham's F-12 medium containing 10% horse serum and [^3 H]choline (1 μCi ml^-1), were resuspended back into the same medium at 10×10^6 cells ml^-1 and stimulated with IL-1β. IL-1β is commercially available.

[5] = test system: ceramide (EL-4 nuclei-free supernate); test: Ceramide levels in EL-4 cell-free system; format: biochemical, murine; details: IL-1β, n=6, p<0.005 vs. control
Method: as §2, §3

[6] = test system: proline-directed protein kinase activities other than ceramide-activated protein; test: Cytosolic kinase activity toward EGFR peptide in EL-4 cells; format: cell-based, murine
[7] = test system: human natural killer-like cell line, YT; test: Ceramide generation in YT cells; format: cell-based; details: preliminary studies
[8] = test system: ceramide-activated protein kinase; test: Ceramide-activated protein kinase activity in EL-4 cell-free system; format: biochemical, murine; details: IL-1β
Method: as §2, §3

[9] = test system: ceramide-activated protein kinase
Method: Homogenates were centrifuged at 500×g for 5 minutes to remove nuclei and at 200,000×g for 30 minutes to prepare microsomal membranes. Membranes were resuspended into homogenizing buffer (2.2 μg membrane protein μl^-1). For assay of kinase activity, the reaction mixture contained 20 μl of microsomal membrane, 40 μl EGFR peptide (4 mg ml^-1 in 25 mM Hepes, pH 7.4) and 100 μl buffer (50 mM HEPES, pH 7.4, 20 mM MgCl2) (40). Phosphorylation was initiated at 22° C. by addition of 40 μl [γ-^32 P] ATP (100 μM final concentration) and terminated at the indicated times by addition of 40 μl of 0.5M ATP in 90% formic acid. Phosphorylated peptide was eluted from a C18 Sep pak cartridge (Millipore), lyophilized, and resolved by C18 reverse phase HPLC using a linear gradient of acetonitrile. […] All assays were performed under conditions determined as linear for time and enzyme concentration. Enzyme activity was determined from the percent conversion of substrate to product and the specific radioactivity of [γ-^32 P] ATP. […] Values (mean ± range) represent duplicate determinations from two experiments.
Activity was measured by the transfer of ^32 P from the γ-position of ATP to EGFR peptide (AA 663-681 of the EGFR). The effect of IL-1β on kinase activity was determined using microsomal membranes derived from cells stimulated with IL-1β.

## IL-1β: Human IL-1β
Protein kinase C
  protein kinase C activity (in words): not enhanced in either membrane or cytosolic fractions
EL-4 cells [1]; EL-4, maximally effective concentrations (n=5), SMase 1×10^-3 U ml^-1
  ceramide response (in words): elevation in ceramide levels
EL-4 cells [1]; IL-1β, 2 minutes, from 360, p<0.005
  ceramide content: 403 pmol 10^6 cells^-1
EL-4 cells [1]; IL-1β, 15 minutes, from 360
  maximum ceramide content: 450 pmol 10^6 cells^-1
EL-4 cells [1]; IL-1β, n=4
  time at which increase in ceramide content was evident: ≤ 30 s
[2]
  reduction in sphingomyelin content (in words): rapid reduction in sphingomyelin content; also recorded: detected at i minute
EL4 cells
  IL-2 secretion in combination with TPA (in words): stimulated secretion maximally
EL4 cells; Table I, TPA 20 ng ml^-1, mean ± range, nd = not detectable
  IL-2 secretion, ±TPA: 261 ± 2
EL-4 cells [3]
  phosphatidylcholine content: unchanged
EL-4 cells [4]; 40 ng ml^-1, 30 minutes, baseline 800±14, mean ± SEM, p<0.005
  sphingomyelin content after IL-1β: 648±16 pmol 10^6 cells^-1
EL-4 cells [4]; IL-1β 40 ng ml^-1
  time at which sphingomyelin reduction was detectable: ≤ 2 min
EL-4 cells [4]; IL-1β, 30 minutes
  concentration for maximal effect, sphingomyelin: 10 ng/mL
  effective concentration, sphingomyelin: 0.01 ng/mL
  effective dose (ED50), sphingomyelin hydrolysis: ≈ 2 ng ml^-1
EL-4 cells [4]; intact EL-4
  effect on sphingomyelin (in words): rapid reduction in sphingomyelin
[5]
  increase in ceramide content (in words): quantitative increase in ceramide content; also recorded: detected at i minute
[6]
  cytosolic kinase activity (in words): not enhanced
[7]
  generation of ceramide in YT cells: induces rapid generation of ceramide
[8]
  ceramide-activated protein kinase activity (in words): Ceramide-activated protein kinase activity also increased
[9]; 10 ng ml^-1, 2 minutes, from 5
  kinase activity after IL-1β: 11 pmol per minute per milligram (pmol min^-1 mg^-1)
[9]; IL-1β
  concentration for maximal effect, kinase activity: 10 ng/mL
  effective concentration, kinase activity: 0.03 ng/mL
  effective dose (ED50), kinase activity: ≈ 2 ng ml^-1
[9]; IL-1β 10 ng ml^-1
  time at which increase in kinase activity was detectable: 30 s
[9]; IL-1β 10 ng ml^-1, 2 minutes
  increase in kinase activity: 2.1 -fold of control
[9]; IL-1β 10 ng ml^-1, p<0.005
  time to maximal kinase activity: 2 min
